This is an account of results in patent publication US20090155869A1 (Gevo, Inc., priority 2006, published 2009).

One test addresses T1, M. elsdenii Bcd (Megasphaera elsdenii, UniProt Q06319).
T1 sequence (Q06319 1-383): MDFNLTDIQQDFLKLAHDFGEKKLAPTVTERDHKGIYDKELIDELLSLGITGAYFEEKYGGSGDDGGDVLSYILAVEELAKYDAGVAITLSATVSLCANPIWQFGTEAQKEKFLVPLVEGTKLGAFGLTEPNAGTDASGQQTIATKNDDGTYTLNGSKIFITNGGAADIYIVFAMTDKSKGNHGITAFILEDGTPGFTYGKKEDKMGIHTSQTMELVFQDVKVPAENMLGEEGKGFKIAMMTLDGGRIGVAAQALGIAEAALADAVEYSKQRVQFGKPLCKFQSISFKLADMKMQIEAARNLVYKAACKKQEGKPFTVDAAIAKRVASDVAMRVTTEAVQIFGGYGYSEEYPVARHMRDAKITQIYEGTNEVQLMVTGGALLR
The conditions noted are these: inhibition of M. elsdenii Bcd; cited from earlier work.

Test [1] concerns C. acetobutylicum P262 Bcd. The conditions noted are these: read-out: Km of the C. acetobutylicum P262 Bcd for butyryl-CoA; cited from earlier work.
The subject of another test is Bcd. The conditions noted are these: read-out: Km of Bcd for butyryl-CoA; unit inferred; cited from earlier work.
For test [2], the target named is crotonase (Crt) from C. acetobutylicum (Clostridium acetobutylicum, UniProt P52046). The conditions noted are these: crotonyl-CoA as substrate of C. acetobutylicum crotonase; cited from earlier work.
The nature of test [3]: in-vitro activity assay of Hbd homologues in lysate, NADH consumption at 340 nm. The conditions noted are these: lysate of GEVO768 (E. coli W3110Z1) transformant, 0.1 mM acetoacetyl CoA, 0.2 mM NADH, pH 7.0. The class given is biochemical. The source says: (§1) In particular, homologues of the pathway enzymes hydroxyl butyryl CoA dehydrogenase (Hbd), crotonase (Crt) and thiolase (Th1) were expressed and compared by in-vitro activity assay. The hydroxyl butyryl CoA dehydrogenase homologues tested were pGV1037 (Hbd from Clostridium acetobutylicum), pGV1041 (Hbd from Butyrivibrio fibrisolvens), pGV1050 (Hbd from Clostridium beijerinkii), and pGV1154 (Hbd from Clostridium acetobutylicum, codon optimized gene sequence). The crotonase homologues tested were pGV1040 (Crt from Butyrivibrio fibrisolvens), pGV1049 (Crt from Clostridium beijerinkii), pGV1094 (Crt from Clostridium acetobutylicum) and pGV1189 (Crt from Clostridium acetobutylicum, codon optimized gene sequence). The thiolase homologues tested were pGV1035 (Th1 from Clostridium acetobutylicum), pGV1039 (Th1 from Butyrivibrio fibrisolvens), and pGV1188 (Th1 from Clostridium acetobutylicum, codon optimized gene sequence). The genes were expressed and assayed as per the following outlined protocol
(§2) GEVO768 (E. coli W3110Z1) was transformed with each of the plasmids and the transformants were plated on LB media with 100 μg/mL of chloramphenicol. The plates were incubated at 37° C. for 14-16 hours. Single colonies of the clones were used to inoculate 3 mL of LB media with 100 μg/mL of chloramphenicol. The cultures were incubated overnight at 37° C. at 250 rpm. The overnight cultures were used to inoculate 50 mL of EZ-rich medium in shake flasks with 100 μg/mL of chloramphenicol. The cultures were incubated at 37° C. at 250 rpm. At mid-exponential growth phase (OD600 0.6-0.8) the cultures were induced with 1 mM IPTG. […]
(§3) To test the activity of Hbd, 10 μL of the lysate was added to 190 μL of 50 mM MOPS pH 7.0 buffer containing 0.1 mM acetoacetyl CoA, and 0.2 mM NADH. The activity of Hbd was measured by monitoring the consumption of NADH at 340 nm. […] Enzyme activity was measured by monitoring the consumption of crotonyl CoA at 263 nm. […] Enzyme activity was measured by monitoring the consumption of acetoacetyl CoA at 303 nm. […]

The nature of test [4]: in-vitro activity assay of Crt homologues in lysate, crotonyl CoA consumption at 263 nm. The class given is biochemical. The conditions noted are these: lysate of GEVO768 (E. coli W3110Z1) transformant, 30 μM crotonyl CoA, pH 7.6.
Text: as §1, §2, §3

By Ki is commonly meant the equilibrium dissociation constant of an inhibitor or competing ligand from its target. In the case of `CC(=O)CC(=O)O` [acetoacetate], at M. elsdenii Bcd, the Ki is 100 nM.
Broadly, the Km is the substrate concentration at which the rate is half of its maximum. For `CCCC(=O)SCCNC(=O)CCNC(=O)[C@H](O)C(C)(C)COP(=O)(O)OP(=O)(O)OC[C@H]1O[C@@H](n2cnc3c(N)ncnc32)[C@H](O)[C@@H]1OP(=O)(O)O` [butyryl-CoA], the Km was roughly 6 µM in test [1] and 5 µM in the test with Bcd.
`C/C=C/C(=O)SCCNC(=O)CCNC(=O)[C@H](O)C(C)(C)COP(=O)(O)OP(=O)(O)OC[C@H]1O[C@@H](n2cnc3c(N)ncnc32)[C@H](O)[C@@H]1OP(=O)(O)O` [crotonyl-CoA]: in test [2], the Km is 30 µM and the Vmax was 6.5×10^6 moles per min per mole.
Regarding “pGV1037: plasmid-expressed Hbd from Clostridium acetobutylicum”, the “Specific activity (Hbd)” value in test [3] was 3.51 nmol/min/μg total cell protein.
In the case of “pGV1154: plasmid-expressed Hbd from Clostridium acetobutylicum, codon optimized gene sequence”, the “Specific activity (Hbd)” value in test [3] was 11.69 nmol/min/μg total cell protein; in test [3] (listed as Hbd), 11.6 nmol/min/μg total cell protein.

B1: GV1189: plasmid-expressed Crt from Clostridium acetobutylicum, codon optimized gene sequence (protein, UniProt P52046 1-261, looked up)
Short-chain-enoyl-CoA …: MELNNVILEKEGKVAVVTINRPKALNALNSDTLKEMDYVIGEIENDSEVLAVILTGAGEKSFVAGADISEMKEMNTIEGRKFGILGNKVFRRLELLEKPVIAAVNGFALGGGCEIAMSCDIRIASSNARFGQPEVGLGITPGFGGTQRLSRLVGMGMAKQLIFTAQNIKADEALRIGLVNKVVEPSELMNTAKEIANKIVSNAPVAVKLSKQAINRGMQCDIDTALAFESEAFGECFSTEDQKDAMTAFIEKRKIEGFKNR
For the molecule B1, the “Specific activity (Crt)” value in test [4] is listed as 916.99 nmol/min/μg total cell protein; in test [4] (listed as crotonase), 1178 nmol/min/μg total cell protein.

B2: pGV1094: plasmid-expressed Crt from Clostridium acetobutylicum (protein, UniProt P52046 1-261, looked up)
Short-chain-enoyl-CoA …: MELNNVILEKEGKVAVVTINRPKALNALNSDTLKEMDYVIGEIENDSEVLAVILTGAGEKSFVAGADISEMKEMNTIEGRKFGILGNKVFRRLELLEKPVIAAVNGFALGGGCEIAMSCDIRIASSNARFGQPEVGLGITPGFGGTQRLSRLVGMGMAKQLIFTAQNIKADEALRIGLVNKVVEPSELMNTAKEIANKIVSNAPVAVKLSKQAINRGMQCDIDTALAFESEAFGECFSTEDQKDAMTAFIEKRKIEGFKNR
In the case of B2, the “Specific activity (Crt)” value in test [4] is 83.39 nmol/min/μg total cell protein.
